Measurements published in the supplement of paper PMC13380429.

Experiments:
Conditions in all cases: 72 h
Vero E6 [1] = experiment: drug sensitivity score (DSS) for viability; higher = more toxic; extreme values may be limits of the assay
U2OS [2] = experiment: as above
Caco-2 [3] = experiment: as above
Calu-3 [4] = experiment: as above
HepG2 [5] = experiment: as above
Vero E6 [6] = experiment: cell viability relative to DMSO; higher = less toxic
U2OS [7] = experiment: as above
Caco-2 [8] = experiment: as above
Calu-3 [9] = experiment: as above
HepG2 [10] = experiment: as above
Vero E6 [11] = experiment: relative viability EC50 (midpoint between 100% and the lowest measured viability); higher = less toxic
U2OS [12] = experiment: as above
Caco-2 [13] = experiment: as above
Calu-3 [14] = experiment: as above
HepG2 [15] = experiment: as above

| SMILES | drug sensitivity score (Vero E6 [1]) | drug sensitivity score (U2OS [2]) | drug sensitivity score (Caco-2 [3]) | drug sensitivity score (Calu-3 [4]) | drug sensitivity score (HepG2 [5]) | cell viability (Vero E6 [6]; 1 nM) | cell viability (Vero E6 [6]; 10 nM) | cell viability (Vero E6 [6]; 100 nM) | cell viability (Vero E6 [6]; 1000 nM) | cell viability (Vero E6 [6]; 10000 nM) | cell viability (U2OS [7]; 1 nM) | cell viability (U2OS [7]; 10 nM) | cell viability (U2OS [7]; 100 nM) | cell viability (U2OS [7]; 1000 nM) | cell viability (U2OS [7]; 10000 nM) | cell viability (Caco-2 [8]; 1 nM) | cell viability (Caco-2 [8]; 10 nM) | cell viability (Caco-2 [8]; 100 nM) | cell viability (Caco-2 [8]; 1000 nM) | cell viability (Caco-2 [8]; 10000 nM) | cell viability (Calu-3 [9]; 1 nM) | cell viability (Calu-3 [9]; 10 nM) | cell viability (Calu-3 [9]; 100 nM) | cell viability (Calu-3 [9]; 1000 nM) | cell viability (Calu-3 [9]; 10000 nM) | cell viability (HepG2 [10]; 1 nM) | cell viability (HepG2 [10]; 10 nM) | cell viability (HepG2 [10]; 100 nM) | cell viability (HepG2 [10]; 1000 nM) | cell viability (HepG2 [10]; 10000 nM) | relative viability EC50 (Vero E6 [11]) | relative viability EC50 (U2OS [12]) | relative viability EC50 (Caco-2 [13]) | relative viability EC50 (Calu-3 [14]) | relative viability EC50 (HepG2 [15]) |
| --- | --- | --- | --- | --- | --- | --- | --- | --- | --- | --- | --- | --- | --- | --- | --- | --- | --- | --- | --- | --- | --- | --- | --- | --- | --- | --- | --- | --- | --- | --- | --- | --- | --- | --- | --- |
| C=CCN1CC[C@]2(C)c3cc(O)ccc3C[C@H]1[C@H]2C | 0 | 0 | 0 | 0 | 0 | 96.9% | 102% | 93.4% | 100% | 107% | 98.6% | 98.2% | 103% | 99.2% | 101% | 97.3% | 99% | 102% | 103% | 96.3% | 102% | 90.2% | 94.7% | 90.3% | 93.8% | 98% | 95.4% | 108% | 104% | 117% | > 10 µM | > 10 µM | > 10 µM | > 10 µM | > 10 µM |
| CCn1cnc(C(=O)NC)c1C(=O)NC [ethimizol] | 0 | 0 | 0 | 0 | 0 | 96.4% | 96.2% | 96.4% | 99.9% | 100% | 98.6% | 102% | 98.1% | 98.2% | 94.9% | 97.5% | 104% | 91.5% | 99.1% | 92.3% | 102% | 92.4% | 91.3% | 102% | 99.1% | 89.3% | 114% | 103% | 104% | 111% | > 10 µM | > 10 µM | > 10 µM | > 10 µM | > 10 µM |
| CCNC(=O)c1noc(-c2cc(C(C)C)c(O)cc2O)c1-c1ccc(CN2CCOCC2)cc1 [NVP-AUY922] | 19.8 | 34.8 | 25.1 | 20.5 | 38.6 | 104% | 106% | 47.1% | 26.6% | 25.6% | 93% | 57.9% | 3% | 3.5% | 1% | 100% | 77.1% | 30.3% | 28.2% | 31.4% | 84.2% | 83.9% | 46% | 37.3% | 29.6% | 103% | 27.5% | 1.2% | 0.8% | 1.2% | 0.0702 µM | 0.012 µM | 0.0149 µM | 0.0281 µM | 0.0067 µM |
| O=C/C=C/c1ccccc1 [cinnamaldehyde] | 0 | 0 | 0 | 0 | 0 | 92.3% | 99.5% | 96.7% | 98.7% | 95.9% | 106% | 99.2% | 98.6% | 96.8% | 99.4% | 103% | 94.2% | 96.9% | 97.6% | 101% | 90.3% | 105% | 105% | 95.1% | 102% | 97.8% | 100% | 108% | 108% | 97.5% | > 10 µM | > 10 µM | > 10 µM | > 10 µM | > 10 µM |
| CC1CCC(NC(=O)N(CCCl)N=O)CC1 (stereo not given) [semustine] | 0 | 0 | 0 | 0 | 0 | 106% | 99.6% | 105% | 104% | 99.8% | 98.8% | 96.6% | 99.6% | 99.5% | 99.9% | 99.1% | 103% | 104% | 91.1% | 91.7% | 98.5% | 110% | 87% | 97.2% | 99.4% | 96.3% | 108% | 92.3% | 107% | 91.8% | > 10 µM | > 10 µM | > 10 µM | > 10 µM | > 10 µM |
| [NH-]c1c[n+](N2CCOCC2)no1 [linsidomine] | 0 | 0 | 0 | 0 | 0 | 98.9% | 99.3% | 95.6% | 100% | 91.1% | 105% | 98.8% | 100% | 96.3% | 101% | 102% | 96.1% | 95.8% | 96.1% | 89.4% | 100% | 96% | 105% | 94.3% | 116% | 96.9% | 106% | 97.7% | 96.8% | 104% | > 10 µM | > 10 µM | > 10 µM | > 10 µM | > 10 µM |
| CC(=O)[C@H]1CC[C@H]2[C@@H]3CC=C4C[C@@H](OC(=O)CCC(=O)O)CC[C@]4(C)[C@H]3CC[C@]12C [pregnenolone-succinate] | 0 | 0 | 0.3 | 0 | 0 | 94.1% | 96.8% | 88.7% | 97.3% | 107% | 101% | 94.7% | 100% | 97.9% | 99.9% | 90.5% | 97.4% | 110% | 94.2% | 87.7% | 89.8% | 95.1% | 93.7% | 94.1% | 113% | 93.3% | 93.8% | 94.4% | 95% | 97% | > 10 µM | > 10 µM | > 10 µM | > 10 µM | > 10 µM |
